Like-named read-outs stand apart in the source and are kept apart here.
Experiments:
cell toxicity CC50 = assay type: cell-based; conditions: human; Hep-G2 cells; mean of at least two experiments; read-out: Cell Cytotoxicity CC50
[1] = test system: RSV (RSV A2 ECACC, 0709161v); assay: RSV plaque reduction assay; assay type: cell-based, respiratory syncytial virus; conditions: mean of at least two experiments unless noted (n = 1)
Method in brief: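 Hep-G2 monolayers infected with 100 PFU/well RSV A2 premixed with eight serial compound dilutions (2 h, 37° C.), then kept 2 days under CMC overlay with compound in DMEM/2% FBS. Plaques immunostained (HRP/TrueBlue) and counted; % infection versus virus control gives EC50, mean of at least two experiments, rounded.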

[2] = human respiratory syncytial virus, HepG2, read-out: RSV A2 Plaque EC50, RSV A2 in Hep-G2 cells

SMILES | CC50 (cell toxicity CC50) [µM] | EC50 [1, 2] [µM] | EC50 ([1]; read-out: RSV A2 Plaque EC50, RSV A2 in Hep-G2 cells) [µM]
O=C(N[C@H]1N=C(c2ccccc2)c2cccc(F)c2NC1=O)c1c(C2CC2)nn2c1OCCC2 [Example 45, 2-Cyclopropyl-N-[(3S)-9-fluoro-2-oxo-5-phenyl-1,3-dihydro-1,4-benzodiazepin-3-yl]-6,7-dihydro-5H-pyrazolo[5,1-b][1,3]oxazine-3-carboxamide] | > 25 | 0.301 | 
C[C@@H]1CCn2nc(-c3cncc(Cl)c3)c(C(=O)N[C@H]3N=C(c4ccccc4)c4cccc(F)c4NC3=O)c2O1 [Example 47, (5R)-2-(5-Chloropyridin-3-yl)-5-methyl-N-[(3S)-9-fluoro-2-oxo-5-phenyl-1,3-dihydro-1,4-benzodiazepin-3-yl]-6,7-dihydro-5H-pyrazolo[5,1-b][1,3]oxazine-3-carboxamide] | > 25 | 0.084 | 
COCC1CCn2nc(-c3ccccc3F)c(C(=O)N[C@H]3N=C(c4ccccc4)c4cccc(F)c4NC3=O)c2O1 (single isomer, unassigned) [Example 191-1, (5R*)-N-[(3S)-9-fluoro-2-oxo-5-phenyl-1,3-dihydro-1,4-benzodiazepin-3-yl]-2-(2-fluorophenyl)-5-(methoxymethyl)-6,7-dihydro-5H-pyrazolo[5,1-b][1,3]oxazine-3-carboxamide] | > 25 |  | 0.083
C[C@@H]1CCn2nc(-c3cn[nH]c3)c(C(=O)N[C@H]3N=C(c4ccccc4)c4cccc(F)c4NC3=O)c2O1 [Example 159, (5R)-N-[(3S)-9-fluoro-2-oxo-5-phenyl-1,3-dihydro-1,4-benzodiazepin-3-yl]-5-methyl-2-(1H-pyrazol-4-yl)-6,7-dihydro-5H-pyrazolo[5,1-b][1,3]oxazine-3-carboxamide] | > 25 | 0.395 | 
CCc1ccc(-c2nn3c(c2C(=O)N[C@H]2N=C(c4ccccc4)c4cccc(F)c4NC2=O)OCC(CO)C3)cn1 (stereo partly drawn) [Example 133, 2-(6-Ethylpyridin-3-yl)-N-[(3S)-9-fluoro-2-oxo-5-phenyl-1,3-dihydro-1,4-benzodiazepin-3-yl]-6-(hydroxymethyl)-6,7-dihydro-5H-pyrazolo[5,1-b][1,3]oxazine-3-carboxamide] | > 25 | 0.22 | 
CN(CC1COc2c(C(=O)N[C@H]3N=C(c4ccccc4)c4cccc(F)c4NC3=O)c(-c3ccccc3F)nn2C1)C1CCOCC1 (stereo partly drawn) [Example 168, N-[(3S)-9-fluoro-2-oxo-5-phenyl-1,3-dihydro-1,4-benzodiazepin-3-yl]-2-(2-fluorophenyl)-6-[[methyl(oxan-4-yl)amino]methyl]-6,7-dihydro-5H-pyrazolo[5,1-b][1,3]oxazine-3-carboxamide] | > 25 | 0.104 | 
CCc1ccc(-c2nn3c(c2C(=O)N[C@H]2N=C(c4ccccc4)c4ccccc4NC2=O)O[C@H](C)CC3)c(C)n1 [Example 65, (5R)-2-(6-Ethyl-2-methyl-3-pyridyl)-5-methyl-N-[(3S)-2-oxo-5-phenyl-1,3-dihydro-1,4-benzodiazepin-3-yl]-6,7-dihydro-5H-pyrazolo[5,1-b][1,3]oxazine-3-carboxamide] | > 25 | 0.084 | 
C[C@@H]1CCn2nc(-c3ccc(F)cc3F)c(C(=O)N[C@H]3N=C(c4ccccc4)c4cccc(F)c4NC3=O)c2O1 [Example 82, (5R)-2-(2,4-Difluorophenyl)-5-methyl-N-[(3S)-9-fluoro-2-oxo-5-phenyl-1,3-dihydro-1,4-benzodiazepin-3-yl]-6,7-dihydro-5H-pyrazolo[5,1-b][1,3]oxazine-3-carboxamide] | > 25 | 0.031 | 
CC(C)Nc1ccc(-c2nn3c(c2C(=O)N[C@H]2N=C(c4ccccc4)c4cccc(F)c4NC2=O)OCCC3)c(F)n1 [Example 4, N-[(3S)-9-Fluoro-2-oxo-5-phenyl-1,3-dihydro-1,4-benzodiazepin-3-yl]-2-[2-fluoro-6-(propan-2-ylamino)pyridin-3-yl]-6,7-dihydro-5H-pyrazolo[5,1-b][1,3]oxazine-3-carboxamide] | > 25 | 0.029 | 
O=C(N[C@H]1N=C(c2ccccc2)c2cccc(F)c2NC1=O)c1c(-c2ccccc2F)nn2c1OC(CN1CCCC1)CC2 (stereo partly drawn) [Example 187, N-[(3S)-9-fluoro-2-oxo-5-phenyl-1,3-dihydro-1,4-benzodiazepin-3-yl]-2-(2-fluorophenyl)-5-(pyrrolidin-1-ylmethyl)-6,7-dihydro-5H-pyrazolo[5,1-b][1,3]oxazine-3-carboxamide] | > 8.84 | 0.249 | 
CCc1ccc(-c2nn3c(c2C(=O)N[C@H]2N=C(c4ccccc4)c4cccc(F)c4NC2=O)O[C@H](C)CC3)cn1 [Example 74, (5R)-2-(6-Ethylpyridin-3-yl)-5-methyl-N-[(3S)-9-fluoro-2-oxo-5-phenyl-1,3-dihydro-1,4-benzodiazepin-3-yl]-6,7-dihydro-5H-pyrazolo[5,1-b][1,3]oxazine-3-carboxamide] | > 25 | 0.039 | 
Cc1c(-c2nn3c(c2C(=O)N[C@H]2N=C(c4ccccc4)c4cccc(F)c4NC2=O)O[C@H](C)CC3)cnn1C [Example 121, (5R)-2-(1,5-Dimethylpyrazol-4-yl)-N-[(3S)-9-fluoro-2-oxo-5-phenyl-1,3-dihydro-1,4-benzodiazepin-3-yl]-5-methyl-6,7-dihydro-5H-pyrazolo[5,1-b][1,3]oxazine-3-carboxamide] | > 25 | 0.374 | 
CCN(C(=O)OC(C)(C)C)C1COc2c(C(=O)N[C@H]3N=C(c4ccccc4)c4cccc(F)c4NC3=O)c(-c3ccccc3F)nn2C1 (stereo partly drawn) [Example 108, tert-butyl N-ethyl-N-[3-[[(3S)-9-fluoro-2-oxo-5-phenyl-1,3-dihydro-1,4-benzodiazepin-3-yl]carbamoyl]-2-(2-fluorophenyl)-6,7-dihydro-5H-pyrazolo[5,1-b][1,3]oxazin-6-yl]carbamate] | > 25 | 0.117 | 
C[C@@H]1CCn2nc(-c3cncc(Cl)c3)c(C(=O)N[C@H]3N=C(c4ccccc4)c4ccccc4NC3=O)c2O1 [Example 46, (5R)-2-(5-Chloropyridin-3-yl)-5-methyl-N-[(3S)-2-oxo-5-phenyl-1,3-dihydro-1,4-benzodiazepin-3-yl]-6,7-dihydro-5H-pyrazolo[5,1-b][1,3]oxazine-3-carboxamide] | > 25 | 0.119 | 
CCn1ccc(-c2nn3c(c2C(=O)N[C@H]2N=C(c4ccccc4)c4cccc(F)c4NC2=O)O[C@H](C)CC3)n1 [Example 68, (5R)-2-(1-Ethylpyrazol-3-yl)-N-[(3S)-9-fluoro-2-oxo-5-phenyl-1,3-dihydro-1,4-benzodiazepin-3-yl]-5-methyl-6,7-dihydro-5H-pyrazolo[5,1-b][1,3]oxazine-3-carboxamide] | > 25 | 0.307 | 
C[C@@H]1CCn2nc(-c3cnn(C4COC4)c3)c(C(=O)N[C@H]3N=C(c4ccccc4)c4cccc(F)c4NC3=O)c2O1 [Example 116, (5R)-N-[(3S)-9-fluoro-2-oxo-5-phenyl-1,3-dihydro-1,4-benzodiazepin-3-yl]-5-methyl-2-[1-(oxetan-3-yl)pyrazol-4-yl]-6,7-dihydro-5H-pyrazolo[5,1-b][1,3]oxazine-3-carboxamide] | > 25 | 0.127 | 
CC(C)NCc1ccc(-c2nn3c(c2C(=O)N[C@H]2N=C(c4ccccc4)c4cccc(F)c4NC2=O)O[C@H](C)CC3)c(F)c1 [Example 183, (5R)-N-[(3S)-9-fluoro-2-oxo-5-phenyl-1,3-dihydro-1,4-benzodiazepin-3-yl]-2-[2-fluoro-4-[(propan-2-ylamino)methyl]phenyl]-5-methyl-6,7-dihydro-5H-pyrazolo[5,1-b][1,3]oxazine-3-carboxamide] | > 25 | 0.294 | 
CC1(C)COc2c(C(=O)N[C@H]3N=C(c4ccccc4)c4ccccc4NC3=O)c(-c3ccccc3F)nn2C1 [Example 40, 2-(2-Fluorophenyl)-6,6-dimethyl-N-[(3S)-2-oxo-5-phenyl-1,3-dihydro-1,4-benzodiazepin-3-yl]-5,7-dihydropyrazolo[5,1-b][1,3]oxazine-3-carboxamide] | > 25 | 0.057 | 
C[C@@H]1CCn2nc(-c3cnn(C4CC4)c3)c(C(=O)N[C@H]3N=C(c4ccccc4)c4cccc(F)c4NC3=O)c2O1 [Example 126, (5R)-2-(1-Cyclopropylpyrazol-4-yl)-N-[(3S)-9-fluoro-2-oxo-5-phenyl-1,3-dihydro-1,4-benzodiazepin-3-yl]-5-methyl-6,7-dihydro-5H-pyrazolo[5,1-b][1,3]oxazine-3-carboxamide] | > 25 | 0.054 | 
O=C(N[C@H]1N=C(c2ccccc2)c2cccc(F)c2NC1=O)c1c(-c2c(F)cccc2F)nn2c1OCC(CO)C2 (single isomer, unassigned) [Example 129-1, (6R*)-2-(2,6-Difluorophenyl)-N-[(3S)-9-fluoro-2-oxo-5-phenyl-1,3-dihydro-1,4-benzodiazepin-3-yl]-6-(hydroxymethyl)-6,7-dihydro-5H-pyrazolo[5,1-b][1,3]oxazine-3-carboxamide] | > 25 | 0.039 | 
O=C(N[C@H]1N=C(c2ccccc2)c2cccc(F)c2NC1=O)c1c(-c2cnn(CC(F)(F)F)c2)nn2c1OCCC2 [Example 150, N-[(3S)-9-fluoro-2-oxo-5-phenyl-1,3-dihydro-1,4-benzodiazepin-3-yl]-2-[1-(2,2,2-trifluoroethyl)pyrazol-4-yl]-6,7-dihydro-5H-pyrazolo[5,1-b][1,3]oxazine-3-carboxamide] | > 25 | 0.061 | 
C[C@@H]1CCn2nc(-c3ccc(N4CC5(COC5)C4)nc3F)c(C(=O)N[C@H]3N=C(c4ccccc4)c4cccc(F)c4NC3=O)c2O1 (single isomer, unassigned) [Example 91] | > 25 | 0.239 | 
